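These data come from cells grown in 96-well plates and exposed to compound for 48 hours at five concentrations. Abbreviation: GI50, concentration required for 50% inhibition of growth. TGI: total growth inhibition.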
Columns and labels:
Test in all cases: NCI-60 cell line screen, 48 h
[1] = test system: ACHN renal
[2] = test system: COLO 205 colon
[3] = test system: IGROV1 ovarian
[4] = test system: MALME-3M melanoma
[5] = test system: NCI-H23 lung
[6] = test system: OVCAR-4 ovarian
[7] = test system: OVCAR-8 ovarian
[8] = test system: SK-MEL-28 melanoma
[9] = test system: SK-MEL-5 melanoma
[10] = test system: SNB-75 CNS

COc1cc(C2C(C(=O)O)=C(COC(C)=O)Oc3cc4c(cc32)OCO4)cc(OC)c1OC (stereo not given)
TGI [1]: > 100 µM
TGI [2]: > 100 µM
TGI [3]: > 100 µM
TGI [4]: > 100 µM
TGI [5]: > 100 µM
TGI [6]: > 100 µM
TGI [7]: > 100 µM
TGI [8]: > 100 µM
TGI [9]: > 100 µM
TGI [10]: > 100 µM

CO/N=C(\C)COc1ccc2c(=O)c(-c3ccccc3)coc2c1
GI50 [1]: 19.2 µM
TGI [1]: 38.8 µM
GI50 [2]: 11.2 µM
TGI [2]: 32.4 µM
GI50 [3]: 24.7 µM
TGI [3]: 77.9 µM
GI50 [5]: 26.4 µM
TGI [5]: 89 µM
GI50 [6]: 40.4 µM
TGI [6]: > 100 µM
GI50 [7]: 21.4 µM
TGI [7]: 46.8 µM
GI50 [8]: > 100 µM
TGI [8]: > 100 µM
GI50 [9]: > 100 µM
TGI [9]: > 100 µM
GI50 [10]: 20 µM
TGI [10]: 81.6 µM

CCOC(=O)C(O)(NC(=O)c1ccccc1F)C(F)(F)F (stereo not given)
TGI [1]: > 100 µM
TGI [2]: > 100 µM
TGI [3]: > 100 µM
TGI [4]: > 100 µM
TGI [5]: > 100 µM
TGI [6]: > 100 µM
TGI [7]: > 100 µM
TGI [8]: > 100 µM
TGI [9]: > 100 µM
TGI [10]: > 100 µM

CCc1ccc2nc(-c3ccc(O)cc3)sc2c1
TGI [1]: 38.2 µM
TGI [2]: 28.6 µM
TGI [3]: 29.4 µM
TGI [4]: 36.8 µM
TGI [5]: 34.1 µM
TGI [7]: 38.9 µM
TGI [9]: 34.6 µM
